Values of other authors, collected in US11439715B2, “Compositions and methods to detect GLUA1 in brain and to identify the presence of GLUA1-mediated post-traumatic stress disorder and other neurological disorders” (Neurovation Labs, Inc., priority 2017, dated 2022).
Entries after “also recorded” stand apart in the source; their conditions may differ. Where two headings read alike, the source gives them in different places.

Columns and labels:
[1] = system: GluA1; conditions: stressed rats, metyrapone given before the trauma, measured three weeks after the trauma
[2] = system: Stress-Enhanced Fear Learning (SEFL), a rodent model of PTSD
[3] = system: GluN1; conditions: stressed and unstressed rats, measured three weeks after the trauma
[4] = system: GluA2; conditions: stressed and unstressed rats, measured three weeks after the trauma

Row | SMILES | GluA1 protein levels in the BLA (GluA1:GAPDH optical density ratio) [1] | GluA1 protein levels in the BLA (GluA1:GAPDH optical density ratio) ([1]; listed as metyrapone) | SEFL (stress-enhanced fear learning) ([2]; metyrapone given before the trauma) | GluN1 levels in the BLA (GluN1:GAPDH optical density ratio) [3] | GluA2 levels in the BLA (GluA2:GAPDH optical density ratio) [4] | percent freezing in Context B on Day 3 (sensitized fear, SEFL) ([2]; intra-BLA infusion post-trauma, compared with stressed controls (ACSF or MSO), hydrobromide)
1 | CC(C)(C(=O)c1cccnc1)c1cccnc1 [Metyrapone] | prevented GluA1 increases | significantly higher in stressed rats than in unstressed rats and metyrapone-treated rats | effectively preventing SEFL | Neither stress nor metyrapone had an effect on GluN1 levels | Neither stress nor metyrapone had an effect on GluA2 levels | 
2 | Br.C[N+](C)(C)CCCCCNCC12CC3CC(CC(C3)C1)C2.[Br-] [IEM-1460, N,N,H,-Trimethyl-5-[(tricyclo[3.3.1.13,7]dec-1-ylmethyl)amino]-1-pentanaminiumbromide hydrobromide] |  |  |  |  |  | significantly reduces freezing in Context B; also recorded: attenuate SEFL
